{"source": "patent US8592394B2", "about": "“Synthetic derivatives beta glycolipids and compositions thereof for the treatment of pathologic disorders” (Enzo Therapeutics, Inc., priority 2003, dated 2013)", "key": {"[1]": {"system": "TNF-α", "assay": "Serum TNF-α by ELISA in ConA induced hepatitis", "assay_type": "in vivo, mice", "settings": "intraperitoneal", "method": "(§1) Serum levels of IFN-γ, TGF-β, TNF-α IL-2, IL-4, IL-6, IL-10 and IL-12 were determined by “sandwich” ELISA, using commercial kits (Quantikine, R&D Systems, Minneapolis, Minn., USA). Serum insulin was also determined by “sandwich” ELISA too, using the commercial kit of Mercodia AB (Uppsala, Sweden) according to the manufacturer's instructions."}, "[2]": {"system": "IL-6", "assay": "Serum IL-6 by ELISA in ConA induced hepatitis", "assay_type": "in vivo, mice", "settings": "intraperitoneal", "method": "as §1"}, "[3]": {"system": "IL-4", "assay": "Serum IL-4 by ELISA in ConA induced hepatitis", "assay_type": "in vivo, mice", "settings": "intraperitoneal, data not shown", "method": "as §1"}, "[4]": {"system": "IFN-γ", "assay": "Serum IFN-γ by sandwich ELISA in ConA induced hepatitis", "assay_type": "in vivo, mice", "method": "as §1\nAssessment of the effect of any of the synthetic analogs on the immune response was next determined by analysis of the cytokine serum level of IFNγ in each animal using a commercial “sandwich” ELISA kit, and by FACS analysis of intrahepatic and intrasplenic (peripheral) lymphocytes levels."}, "[5]": {"system": "AKT", "assay": "Western blot of liver extracts of ob/ob mice: AKT activation", "assay_type": "in vivo", "settings": "per os daily 4 weeks, 15 μg (group D)", "method": "For analysis of whole tissue lysates, snap-frozen liver pieces were homogenized in 0.75 ml of ice-cold PBS and centrifuged at 4° C. for 5 min in 2000 rpm. Pellets were lysed with 50 mM beta glycerophosphate, 1.5 mM EGTA, PH 7.3, 1 mM EDTA, PH 7.3, 1 mM DTT, 0.1 mM Sodium vanadate, 1% NP-40, and cocktails of protease and phosphatase (Sigma, Rehovot, Israel).\n(§2) Lysates were centrifuged twice at 4° C. for 10 minutes in 14000 rpm. Equivalent amounts of lysates (15 μg/lane), determined by Bradford assay (Bio-Rad, Rehovot, Israel), were separated by sodium dodecyl sulfate polyacrylamide gel electrophoresis (SDS-PAGE) and transferred to nitrocellulose membranes.\nFor metabolic syndrome experiments, proteins were detected with JNK-2, Phospho JNK (Thr183/Tyr185), Akt and phospho Akt (Ser 473) antibodies (Cell Signaling Technologies, MA). β-actin (abcam, UK) was used as the loading control.\n(§3) Blots were developed with horseradish peroxidase-conjugated secondary antibodies (Jackson Laboratories Bar Harbor, Me.) and Western Blot-Luminol Reagent (Santa Cruz Biotechnology, CA, USA). Cell counting and western Blot quantification was performed using total Lab (Phoretix, USA) software.\nTherefore, five groups of male C57BL/6 Ob/Ob mice were studied. […]"}, "[6]": {"system": "STAT6", "assay": "Immunoblot of liver lysates: STAT6", "assay_type": "in vivo, mice", "settings": "IP", "method": "For ConA induced hepatitis experiments spleen and liver lysates were lysed in RIPA buffer containing 50 mM Tris, pH 7.4, 1% NP-40, 150 mM NaCl, 0.1% SDS, 0.5% sodium deoxycholate and protease inhibitors (5 μg/ml, Sigma), with protease and phosphatase (Sigma, Rehovot, Israel).\nas §2\nFor ConA induced hepatitis experiments proteins were detected with phospho-specific STAT1-Tyr701, STAT6-Tyr641, STAT1, and STAT6 antibodies from Cell Signaling. β-actin (abcam, UK) was used as a loading control.\nas §3"}, "[7]": {"system": "ob/ob mice", "assay": "Serum ALT and AST (hepatic injury) in ob/ob mice", "assay_type": "in vivo", "settings": "for serum AST: vehicle group A 710", "method": "The effect of β-glycolipids on liver injury was evaluated by serum aspartyl transaminase (AST) and alanine aminotransferase (ALT) activities, which were determined by a clinical chemistry analyzer, Reflovet Plus (Roche Diagnostics, GmbH, Mannheim, Germany).\nTherefore, five groups of male C57BL/6 Ob/Ob mice were studied. Mice (6 per group) were fed (per os) daily for 4 weeks with 15 or 45 μg of GC (groups B and C, respectively) and 15 or 45 μg of ALIB-97 (groups D and E, respectively). Control mice (Group A) were administered vehicle only."}}, "data": [{"compound": "CCCCCCCCCCCCCC=CC(O)C(CO[C@@H]1OC(CO)[C@@H](O)C(O)C1O)NC(=S)NC12CC3CC(CC(C3)C1)C2", "note": "(stereo in doubt) [ALIB-97, N-adamantyl-N′-glucosylsphingosine thiourea]", "values": [{"measurement": "serum TNF-α secretion", "setting": "[1]; B6 mice", "value": "modest effect"}, {"measurement": "serum TNF-α levels", "setting": "[1]; CD1d−/− KO mice", "value": "decreased"}, {"measurement": "serum TNF-α levels", "setting": "[1]; Jα18−/− KO mice", "value": "decreased"}, {"measurement": "serum IL-6 levels", "setting": "[2]; B6 mice", "value": "reduced"}, {"measurement": "serum IL-6 levels", "setting": "[2]; Jα18−/− mice", "value": "reduced"}, {"measurement": "serum levels of IL-4", "setting": "[3]", "value": "did not affect"}, {"measurement": "serum IFN-γ levels", "setting": "[4]; B6 mice, intraperitoneal", "value": "marked decrease"}, {"measurement": "serum IFN-γ levels", "setting": "[4]; B6 mice, oral administration, after 20 hours, vs control p<0.01", "value": "significant decrease"}, {"measurement": "serum IFN-γ levels", "setting": "[4]; CD1d−/− KO mice, intraperitoneal", "value": "did not significantly alter"}, {"measurement": "IFNγ serum levels", "setting": "[4]; ConA induced hepatitis, C57Bl/6 mice, intraperitoneal, low dosage 1 μg/mice", "value": "decrease"}, {"measurement": "serum IFN-γ levels", "setting": "[4]; Jα18−/− mice, intraperitoneal", "value": "substantial increase"}, {"measurement": "AKT activation", "setting": "[5]", "value": "decreased"}, {"measurement": "STAT6 expression in the liver", "setting": "[6]; B6 mice", "value": "slightly increased"}, {"measurement": "STAT6 expression in the liver", "setting": "[6]; CD1d−/− mice", "value": "markedly induced"}, {"measurement": "serum AST", "setting": "[7]; day 30, 15 μg per os daily", "value": 289, "unit": "u/L"}, {"measurement": "serum ALT", "setting": "[7]; day 30, 45 μg per os daily, vehicle group A 370, p<0.05", "value": 165, "unit": "u/L"}, {"measurement": "serum AST", "setting": "[7]; day 30, 45 μg per os daily", "value": 124, "unit": "u/L"}]}]}
